Results published in patent publication US20220323471A1 (priority 2019, published 2022).
Entries after “also recorded” stand apart in the source; their conditions may differ.

Assays:
ZIKV-RVP = type: cell-based, Zika virus; settings: VERO, HT1080, CHME3 cells; MOI 0.5; 48 hours
Sendai Virus (SeV) = assay: Sendai Virus infection and IFN-β production in CHME3 cells; type: cell-based; settings: SeV MOI 1 and 10, DGP 1 μM, NH4Cl 20 mM
Procedure: The Flaviviridae family of viruses encode a glycoprotein that is necessary to achieve fusion at the endosomal/lysosomal membranes, the step that releases viral components into the cytoplasm. […] Instead, SeV fuses at the plasma membrane. To this end, IFN-β production and viral infection were measured in CHME3 cells infected with SeV at an MOI 1 and 10 in the presence of DGP (1 μM) or 20 mM NH4Cl.
To detect viral copies of ZIKV and Sendai Virus (SeV) by qRT-PCR, cells were seeded in 24-well plates, with or without DGP treatment, and infected with the virus at the indicated MOI for 48 h. After the incubation period, total RNA from HT1080, VERO, and CHME3 cells was isolated and purified using Trizol (Invitrogen). For detection of ZIKV viral load in brain and spleen, 3 mice were sacrificed at 6 days post-infection and total RNA was extracted from the brain and spleen. For cDNA synthesis, 1 ng of total RNA was reverse transcribed. The reaction mixture included 1 mM of deoxyribonucleotide phosphates (dNTPs), 2 nM of the specific reverse primer of ZIKV or SeV, 1× M-MULV buffer, 10 U M-MuLV RT (BioLabs), and 2 U of RNase Inhibitor. The reaction mixture was incubated for 1 hour at 42° C. followed by 20 min at 65° C. to inactivate the enzyme. For actin detection, Oligo-dT was used to reverse transcribe total RNA.
ZIKV RNA levels were measured using real-time PCR. HT1080 and VERO cells were challenged by ZIKV MR766 at an MOI of 1 in the presence of DGP. At 48 hours post-challenge, cells were lysed and total RNA was extracted using trizol. Total RNA was used to determine the levels of ZIKV RNA by real-time PCR using specific primers against ZIKA. qRT-PCR was carried out using SYBR green in a 20-μl final volume using a MASTERCYCLER proS machine. The primers used to detect ZIKV were: SEQ ID NO. 1: 5′-TT […]-3′-Forward (Genome Position 941-964) and SEQ ID NO. 2: 5′-[…]-3′-Reverse (Genome position 1123-1103) (AY632535.2). For the detection of SeV, the following primers were used: SEQ ID NO. 3: 5′-[…]-3′-Forward (Genome position 210-233) and SEQ ID NO. 4: 5′-[…]-3′-Reverse (Genome position 332-307) (M30202. Genome position 210-332) (Wagner, A. M. et al. 2003, “Detection of sendai virus and pneumonia virus of mice by use of fluorogenic nuclease reverse transcriptase polymerase chain reaction analysis.” Comp Med 53(2): 173-177). For the detection of IFN-β the following primers were used: SEQ ID NO. 5: Forward 5-[…]-3′ (Genome position 644-668) and SEQ ID Na 6: Reverse 5′-[…]-3′ (Genome position 718-697) (NM_002176.2) and for actin detection: SEQ ID NO. 7: 5′-[…]-′3-Forward and SEQ ID NO. 8: 5′-[…]′3-Reverse. ZIKA viral RNA levels were normalized to actin (upper panels). […]

`COc1cc2c(OC3OC(C)C(O)C(O)C3O)c3c(c(-c4ccc5c(c4)OCO5)c2cc1OC)C(=O)OC3` (stereo not drawn) [DGP, 6-deoxyglucose-diphyllin] was tested, and the “concentration at which ZIKV-RVP infection was substantially inhibited” value (ZIKV-RVP) was 0.25 to 0.50 µM, the “IFN-β production in SeV-infected cells” value (Sendai Virus (SeV)) was “did not inhibit; also recorded: increased induction” and the “SeV infection / viral replication” value (Sendai Virus (SeV)) was “does not inhibit; also recorded: increased viral replication”.
